Measurements taken from patent publication US20060280725A1, “Compositions and methods of treating and diagnosing hepatoma” (priority 2003, published 2006).

Columns and labels:
ASCT2 mRNA = assay: Northern blot analysis of ASCT2 mRNA after siRNA transfection; format: cell-based, human
Experimental: FIG. 15. […] B is the phospho-imager quantification of the bands in A. C is the concentration curve for siRNA1, showing that 50 nM is sufficient for maximum silencing of ASCT2 expression.
siRNAs that are specific to ASCT2 were designed using several known algorithms and then checked for specificity. Four (4) siRNAs, i.e., siRNA1 (which comprises SEQ ID NO:3), siRNA2 (which comprises SEQ ID NO:4), siRNA3 (which comprises SEQ ID NO:5), and siRNA4 (which comprises SEQ ID NO:6), were synthesized. SK-Hep cells were transfected with 50 nM concentration of any one of siRNA1, 2, 3 or 4 using Lipofectamine™ 2000 (Invitrogen™ life technologies) based on the protocols set forth in Gitlin, L., Karelsky, S., and Andino, R. (2002), Nature 418: 430-434; Yu, J. Y., DeRuiter, S. L., and Turner, D. L. (2002), Proc. Nat. Acad. Sci. USA 99:6047-6052; and “Transfecting siRNA into Mammalian Cells Using Lipofectamine™ 2000,” Form No. 18057N, Doc. Rev. 102802 by Invitrogen Corporation (2002), which are herein incorporated by reference. At 24 hours and at 48 hours, RNAs were extracted from the transfected cells and the expression of ASCT2 was examined by Northern blot analysis (see FIG. 15A).
Hepatoma cells were then treated with Lipofectamine™ 200 without siRNA1, with 12.5 nM, 25 nM, 50 nM or 100 nM siRNA1.

hepatoma cells [1] = assay: Glutamine transport after siRNA1 treatment; format: cell-based, human
Experimental: (§1) FIG. 16. […] Panel C are photos from the experiment of panel B.
(§2) The physiological effects of downregulating ASCT2 expression by administration of siRNA1 in hepatoma cells were studied. Glutamine transport, which was measured as nanomoles of glutamine per milligram of total protein per 30s, was examined at 24 hours and at 48 hours in Lipofectamine treated cells and Lipofectamine+50 nM siRNA1. […] Cell counts were made at 48 hours of hepatoma cultures, each of which were started with the same number of viable cells, receiving either Lipofectamine™ 200 alone or Lipofectamine™ 200 plus siRNA1. After 48 hours, a 40% reduction in the number of cells that had received isRNA1 (which comprises SEQ ID NO:3) relative to control cells was observed.

ASCT2/ATB^0 RNA = assay: Northern blot analysis of ASCT2/ATB0 silencing in six human liver cancer cell lines; format: cell-based; settings: 50 nM
Text: FIG. 17. […] Panel B are the phospho-imager quantification results of the blot shown in panel A (normalized to beta actin mRNA levels).
RNA was extracted from six (6) human liver cancer cell lines and subject to northern blot analysis using ASCT2/ATB^0 DNA as a probe. Actin RNA was probed as a baseline control. […] Those autoradiograms were subjected to phospho-imager quantitative analysis and normalized to actin RNA expression (FIG. 17, panel B). The designation “L” refers to Liopfectamine™ 200 alone, and “S” refers to Liopfectamine™ 200 plus siRNA at 50 nM.

hepatoma cells [2] = assay: Cell counts after siRNA1 treatment; format: cell-based, human
Experimental: as §1, §2

## siRNA1: siRNA specific to ASCT2, which comprises SEQ ID NO:3 (AGGAGGTGCTCGATTCGTT; listed as DNA, chemistry not given here; listed as Homo sapiens)
ASCT2 mRNA; SK-Hep, 50 nM siRNA, 24 and 48 hours
  relative effectiveness at reducing ASCT2 expression (mRNA relative to actin): most effective of the four siRNAs
ASCT2 mRNA; tested 12.5, 25, 50, 100 nM
  concentration sufficient for maximum silencing of ASCT2 expression: 50 nM
Hepatoma cells [1]; 50 nM, 24 and 48 hours, vs Lipofectamine alone, p<0.01
  reduction in glutamine transport relative to controls: greater than 50%
Hepatoma cells [1]; FIG. 16 panel A
  ASCT2 function (glutamine uptake): substantially decreases
ASCT2/ATB^0 RNA
  relative ASCT2/ATB^0 expression (normalized to actin RNA): significant reduction
Hepatoma cells [2]; FIG. 16 panel B
  cellular loss compared to transfection reagent alone: leads to cellular loss (death)
Hepatoma cells [2]; after 48 hours, vs Lipofectamine alone
  reduction in the number of cells relative to control cells: 40%
